This is an account of results in patent US20170056559A1, “Active Agent-Particle Combination Supporting Bone Regeneration” (ECOLE POLYTECHNIQUE FEDERALE DE LAUSANNE (EPFL), priority 2014, published 2017).

The test system of assay [1] is RAW 264.7 murine macrophages. The experiment in a line: Cell proliferation assay with RAW 264.7 macrophages (CellTiter 96 AQueous One Solution). Format: cell-based. Conditions: Zoledronate concentrations from 0.16 to 40 μM.
Experimental: An aqueous Zoledronate solution with a concentration of 2 mg/ml was prepared and sterile filtered. The drug solution was diluted with CCM to a final concentration of 80 μM of Zoledronate. A further dilution with CCM gave Zoledronate supplemented medium (Zol-CCM) with concentrations of 80 μM, 40 μM, 20 μM, 10 μM, 5 μM, 2.5 μM and 1.25 μM. The dilution procedure was repeated with an aqueous dispersion containing 2 mg/ml Zoledronate and 20 mg/ml nHA (nHA-Zol-CCM). The macrophages were seeded with a density of 2500 cell per well in 96-well plates (Microtest™ 96, Becton Dickinson Labware, NJ, USA) and incubated with 100 μl CCM at standard incubation conditions (37° C., 5% CO2). After 24 h of incubation, 100 μl of CCM, Zol-CCM or nHA-Zol-CCM were added to the cells, the final Zoledronate concentrations in the CCM were therefore 40 μM, 20 μM, 10 μM, 5 μM, 2.5 μM, 1.25 μM and 0.625 μM. A cell proliferation assay (CellTiter 96® AQueous One Solution, Promega, Wis., USA) was performed after 24, 48 and 72 hours of cell exposure to the modified CCM. The absorbance was measured with a plate reader (Wallac 1420 Victor 2, Perkin Elmer, Waltham, Mass., USA). Background plates with only the modified media were measured at all time points to avoid a bias due to the nHA particles in the dispersions.
Assay [2] concerns rat femoral model of postmenopausal osteoporosis. The experiment in a line: In vivo microCT static and dynamic histomorphometry around femoral screws in ovariectomized rats. The procedure:
The in vivo study in a rat femoral model of postmenopausal osteoporosis was performed following a well-established protocol. All animal procedures were approved by the local animal care and use committee (license no. 2508.1, EXPANIM, SCAV, Epalinges, Switzerland).
Eight virgin female Wistar rats (Janvier Labs, Saint-Berthevin, France) were ovariectomized bilaterally with a dorsal approach at an age of 17 weeks and a weight of 295±18 g to induce an estrogen deficiency related bone loss. The rats were housed 4 per cage under 12 h light to 12 h dark cycles at 22° C. room temperature with 55% humidity. They were fed with a standard rodent diet (KLIBA NAFAG 3436, Provimi Kliba AG, Switzerland) and tab water at libitum. […]
In vivo microCT scans (Skyscan 1076, Bruker microCT, Kontich, Belgium) of the right femur only were performed one day before OVX and one day before screw implantation in order to confirm the bone loss caused by the estrogen deficiency. […] The image taken for the evaluation of the bone loss and for dynamic histomorphometry were processed and analyzed using the softwares Amira® (FEI Vizualisation Sciences Group, Burlington, USA) and CTan (Bruker microCT, Kontich, Belgium). […] For an analysis of the spatio-temporal effect, the static and dynamic bone parameters were analyzed in 4 layers of 368 μm each around the screw. […]

For assay [3], the system named is peri-implant bone. The note with it: Zoledronate locally delivered from a hyaluronic acid hydrogel; cited from earlier work.

Consider `O=P(O)(O)C(O)(Cn1ccnc1)P(=O)(O)O` [Zoledronate], for which the cell proliferation entry in assay [1] is listed as “dose-depended proliferation decrease”. The bone resorption/demineralization peak result in assay [2] (between days 10 and 31, locally delivered) was “completely inhibited”. Besides, in assay [2] (later during the study), the “resorption of bone and degradation of the biomaterial” value was “efficiently inhibited the resorption of present and newly formed bone”. Moreover, in assay [3], the “increase of early bone formation rate” value was “up to 100%” and the peri-implant bone resorption entry was “efficiently inhibiting peri-implant bone resorption”.
